The nature of the data set: Bulk and tapped density, compressibility index (USP <1174> Powder Flow) of indaziflam crystal samples. It counts as physicochemical. The following applies: for Tap density: cylinder manually tapped (dropped) 50 times, ~1 second between taps; for flowability: judged from compressibility index as explained in US Pharmacopoeia method <1174> Powder Flow; for Bulk Density: sample poured into tared cylinder to 250 ml mark and weighed. As for the experimental part: For purposes of sufficiency of disclosure, the “compressibility index” means in the present invention the compressibility index measured according to US Pharmacopoeia method <1174> Powder Flow, revision from 20 Jan. 2023.
Bulk and tapped density measurements are obtained by placing a sample onto a glazed paper. Then, the sample is poured into the tared cylinder until 250 ml mark is reached. The amount of sample is weighed. Rubber bung is fitted into the cylinder. Cylinder is placed in the dropping box and manually tapped (dropped) 50 times with ˜1 second time difference between taps. Compressibility index is calculated from the bulk density and the tapped density as explained in US Pharmacopoeia method <1174> Powder Flow, revision from 20 Jan. 2023.

The structures appear in SMILES notation.

Results on three molecules are retold here after US20250382272A1, “CRYSTALLINE FORM OF INDAZIFLAM, METHODS FOR ITS PREPARATION AND USE THEREOF” (ADAMA AGAN LTD., priority 2022, published 2025).

Turning to `Cc1ccc2c(c1)[C@H](Nc1nc(N)nc([C@@H](C)F)n1)[C@@H](C)C2` [Example 2, N-[(1R,2S)-2,6-dimethyl-2,3-dihydro-1H-inden-yl]-6-[(1R)-1-fluoroethyl]-1,3-5-triazine-2,4-diamine], the Tap density is 0.52 gr/ml, the flowability entry is given as “good flowability” and the “Bulk Density” value is reported as 0.47 gr/ml.
Regarding `Cc1ccc2c(c1)[C@H](Nc1nc(N)nc([C@@H](C)F)n1)[C@@H](C)C2` [Example 1, N-[(1R,2S)-2,6-dimethyl-2,3-dihydro-1H-inden-yl]-6-[(1R)-1-fluoroethyl]-1,3-5-triazine-2,4-diamine], the Tap density was 0.65 gr/ml and the “Bulk Density” value turned out to be 0.56 gr/ml.
In the case of `Cc1ccc2c(c1)[C@H](Nc1nc(N)nc([C@@H](C)F)n1)[C@@H](C)C2` [Comparative Example 3, N-[(1R,2S)-2,6-dimethyl-2,3-dihydro-1H-inden-yl]-6-[(1R)-1-fluoroethyl]-1,3-5-triazine-2,4-diamine, reference compound], the Tap density worked out at 0.59 gr/ml, the flowability result is listed as “not good” and the “Bulk Density” value is 0.48 gr/ml.
